Laboratory results published in the supplement of paper PMC4862054.

Experiments:
MFM-223 [1] = conditions: 72 h
Outline: (§1)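 Compound dissolved in 5 µl medium was placed in 384-well plates before 20 µl of breast cancer cell suspension was added, and the plates were incubated for 72 h. Cells then received 2.5 µl CellTiter-Blue for 2 h at 37 °C, and fluorescence was read at 560/590 nm. EC50 values come from percent-inhibition dose-response fits that were censored at the highest concentration, with plates normalised to vehicle and a positive kill control and rows with a zero drug sensitivity score excluded.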

BT-549 [2] = conditions: 72 h
Outline: as §1

HDQ-P1 = conditions: 72 h
Outline: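 Two sequential readouts followed a 72 h incubation of breast cancer cell lines with compound at 5 concentrations in 10-fold steps over a compound-specific 10,000-fold range: CellTox Green fluorescence (485/520 nm) for cell death, then CellTiter-Glo luminescence, after 10 min at room temperature, for viability. Each plate was normalised to 0.1 % DMSO and a positive kill control. Dose-response curves were fitted for EC50, censored at the top concentration.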

BT-474 [3] = conditions: 72 h
Outline: as §1

CAL-120 [4] = conditions: 72 h
Outline: as §1

HCC1143 [5] = conditions: 72 h
Outline: as §1

HCC1599 [6] = conditions: 72 h
Outline: as §1

HCC1937 = conditions: 72 h
Outline: as §1

Hs578T = conditions: 72 h
Outline: as §1

MDA-MB-231 [7] = conditions: 72 h
Outline: as §1

MDA-MB-436 [8] = conditions: 72 h
Outline: as §1

MDA-MB-468 [9] = conditions: 72 h
Outline: as §1

SK-BR-3 [10] = conditions: 72 h
Outline: as §1

CAL-120 [11] = conditions: 72 h; remark: listed apart in the source
Protocol: (§2)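 Drug sensitivity and resistance testing (DSRT) of breast cancer cell lines in 384-well plates, 5 concentrations in 10-fold dilutions over a compound-specific 10,000-fold range. After 72 h, cytotoxicity was read by CellTox Green fluorescence and viability by CellTiter-Glo luminescence (multiplexed), normalised to DMSO and benzethonium chloride controls. EC50 is the inflection point of the fitted dose-response curve (bottom asymptote free, so it can be relative for partial curves) and is censored at the highest tested concentration. Rows with DSS 0 (no meaningful response) were excluded.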

CAL-51 [12] = conditions: 72 h
Protocol: as §2

MDA-MB-231 [13] = conditions: 72 h; remark: listed apart in the source
Protocol: as §2

MDA-MB-468 [14] = conditions: 72 h; remark: listed apart in the source
Protocol: as §2

CAL-85-1 [15] = conditions: 72 h
Protocol: as §2

HCC1143 [16] = conditions: 72 h; remark: listed apart in the source
Protocol: as §2

BT-549 [17] = conditions: 72 h; remark: listed apart in the source
Protocol: as §2

BT-474 [18] = experiment: normalised response (% of control), CellTiter-Glo; higher = more viable cells (100 = DMSO, 0 = benzethonium chloride kill control); conditions: incubation time: 72 h
Outline: (§3)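 Breast cancer cell lines in 20 µl suspension were added to 384-well plates containing compound at 5 concentrations, spaced in 10-fold steps across a 10,000-fold range chosen for each compound, and incubated for 72 h. CellTox Green fluorescence was read at 485/520 nm, followed by CellTiter-Glo luminescence after 10 min at room temperature. Signals on each plate were normalised so that 0.1 % DMSO equals 100 and a positive kill control equals 0. Every value in the table is the normalised signal at one concentration of the series.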

CAL-51 [19] = experiment: as above; conditions: incubation time: 72 h
Outline: as §3

CAL-85-1 [20] = experiment: as above; conditions: incubation time: 72 h
Outline: as §3

DU-4475 = experiment: as above; conditions: incubation time: 72 h
Outline: as §3

HCC1599 [21] = experiment: as above; conditions: incubation time: 72 h
Outline: as §3

MDA-MB-231 [22] = experiment: as above; conditions: incubation time: 72 h
Outline: as §3

MDA-MB-436 [23] = experiment: as above; conditions: incubation time: 72 h
Outline: as §3

MDA-MB-468 [24] = experiment: as above; conditions: incubation time: 72 h
Outline: as §3

MFM-223 [25] = experiment: as above; conditions: incubation time: 72 h
Outline: as §3

SK-BR-3 [26] = experiment: as above; conditions: incubation time: 72 h
Outline: as §3

| EC50, CellTiter-Blue viability (BT-549 [2]) [nM] | EC50, CellTiter-Blue viability (BT-474 [3]) [nM] | EC50, CellTiter-Blue viability (HCC1143 [5]) [nM] | EC50, CellTiter-Blue viability (HCC1599 [6]) [nM] | EC50, CellTiter-Blue viability (HCC1937) [nM] | EC50, CellTiter-Blue viability (MDA-MB-231 [7]) [nM] | EC50, CellTiter-Blue viability (MDA-MB-436 [8]) [nM] | EC50, CellTiter-Blue viability (MDA-MB-468 [9]) [nM] | EC50, CellTiter-Blue viability (SK-BR-3 [10]) [nM] | Compound | EC50, CellTiter-Blue viability (MFM-223 [1]) [nM] | EC50, CellTiter-Blue viability (CAL-120 [4]) [nM] | EC50, CellTiter-Blue viability (Hs578T) [nM] | also measured |
| --- | --- | --- | --- | --- | --- | --- | --- | --- | --- | --- | --- | --- | --- |
| – | – | – | – | – | – | – | – | – | O=C(CCBr)N1CCN(C(=O)CCBr)CC1 [Pipobroman] | 6190 | – | – | – |
| 27.1 | – | – | – | – | – | – | – | – | CNC(=O)c1cc(Oc2ccc(NC(=O)Nc3ccc(Cl)c(C(F)(F)F)c3)cc2)ccn1 [Sorafenib] | 952 | – | – | – |
| 798 | 1630 | 604 | 2120 | 257 | 503 | 998 | 841 | 267 | O=C(Nc1c[nH]nc1-c1nc2ccc(CN3CCOCC3)cc2[nH]1)NC1CC1 [AT9283] | 886 | 144 | 337 | EC50, CellTiter-Glo (HDQ-P1): 303 nM; EC50, CellTox Green (CAL-120 [11]): 192 nM; EC50, CellTox Green (CAL-51 [12]): 0.88 nM; EC50, CellTox Green (MDA-MB-231 [13]): 24.6 nM; EC50, CellTox Green (MDA-MB-468 [14]): 0.51 nM |
| 146 | 17 | 18.6 | 21.9 | 33.6 | 47.8 | 279 | 38.9 | 5.33 | Cn1cc(CNCC2CCN(c3ncc(C(=O)NO)cn3)CC2)c2ccccc21 | 33.1 | 13.3 | 65.1 | – |
| – | – | – | 270 | – | – | – | – | – | COc1cc(CCc2cc(NC(=O)c3ccc(N4CC(C)NC(C)C4)cc3)n[nH]2)cc(OC)c1 (stereo not drawn) [AZD4547] | 46.6 | – | – | EC50, CellTox Green (CAL-120 [11]): > 1000 nM |
| 8260 | – | – | – | – | – | 107 | – | – | Cc1ccc(Nc2nccc(N(C)c3ccc4c(C)n(C)nc4c3)n2)cc1S(N)(=O)=O [Pazopanib] | 34.6 | – | – | EC50, CellTox Green (CAL-85-1 [15]): > 10000 nM; EC50, CellTox Green (HCC1143 [16]): > 10000 nM |
| 1540 | 770 | 882 | 709 | 958 | 2240 | 2390 | 1650 | 158 | CS(=O)(=O)N1CCN(Cc2cc3nc(-c4cccc5[nH]ncc45)nc(N4CCOCC4)c3s2)CC1 [GDC-0941] | 721 | 990 | 1460 | – |
| – | – | – | – | – | – | – | – | – | COc1nc(N)nc2c1ncn2[C@@H]1O[C@H](CO)[C@@H](O)[C@@H]1O [Nelarabine] | – | – | – | EC50, CellTox Green (BT-549 [17]): > 10000 nM |
| – | – | – | – | – | – | – | – | – | CC[C@@]1(O)C(=O)OCc2c1cc1n(c2=O)Cc2cc3c(CN(C)C)c(O)ccc3nc2-1 [Topotecan] (100 nM) | – | – | – | normalised response (BT-474 [18]): 91.9%; normalised response (CAL-51 [19]): 98.2%; normalised response (CAL-85-1 [20]): 85.7%; normalised response (DU-4475): 77.9%; normalised response (HCC1599 [21]): 65.5%; normalised response (MDA-MB-231 [22]): 92.8%; normalised response (MDA-MB-436 [23]): 75.2%; normalised response (MDA-MB-468 [24]): 62.5%; normalised response (MFM-223 [25]): 97.4%; normalised response (SK-BR-3 [26]): 66.3% |
